These results are taken from patent US7517874B2 (priority 2007, dated 2009).

pEC50: −log10 of the molar value. Read-outs that look alike come from different tables or passages of the source.

Assay [1] addresses human CB1 receptor (hCB1) (Homo sapiens, UniProt P21554). Kind of assay: cell-based. It counts as cell-based. As to conditions: for +/− HCB1: agonist or inverse agonist at hCB1. The method, boiled down: (§1)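 Agonism or inverse agonism was assessed as change in intracellular cAMP in CHO-K1 cells expressing human CB1 or rat CB2 (genomic DNA, pcDNA3.1).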
The target of another assay is T1, rat CB2 receptor (rCB2) (Rattus norvegicus, UniProt Q9QZN9).
T1 sequence (Q9QZN9 1-360): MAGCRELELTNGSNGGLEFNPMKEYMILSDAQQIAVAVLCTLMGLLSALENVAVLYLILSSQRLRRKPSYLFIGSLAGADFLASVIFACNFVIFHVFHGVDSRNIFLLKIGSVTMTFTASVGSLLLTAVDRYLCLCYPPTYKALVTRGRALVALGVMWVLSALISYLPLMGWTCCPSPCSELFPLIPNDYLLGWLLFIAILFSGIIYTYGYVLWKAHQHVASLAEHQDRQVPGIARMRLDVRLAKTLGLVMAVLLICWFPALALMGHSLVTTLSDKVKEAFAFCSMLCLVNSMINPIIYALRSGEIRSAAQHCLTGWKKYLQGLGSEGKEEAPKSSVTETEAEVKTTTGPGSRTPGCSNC
Briefly: cell-based. It counts as cell-based. As to conditions: for +/− RCB2: agonist or inverse agonist at rCB2. The method, boiled down:
as §1

Sequence of human CB1 receptor (hCB1) (P21554 whole entry): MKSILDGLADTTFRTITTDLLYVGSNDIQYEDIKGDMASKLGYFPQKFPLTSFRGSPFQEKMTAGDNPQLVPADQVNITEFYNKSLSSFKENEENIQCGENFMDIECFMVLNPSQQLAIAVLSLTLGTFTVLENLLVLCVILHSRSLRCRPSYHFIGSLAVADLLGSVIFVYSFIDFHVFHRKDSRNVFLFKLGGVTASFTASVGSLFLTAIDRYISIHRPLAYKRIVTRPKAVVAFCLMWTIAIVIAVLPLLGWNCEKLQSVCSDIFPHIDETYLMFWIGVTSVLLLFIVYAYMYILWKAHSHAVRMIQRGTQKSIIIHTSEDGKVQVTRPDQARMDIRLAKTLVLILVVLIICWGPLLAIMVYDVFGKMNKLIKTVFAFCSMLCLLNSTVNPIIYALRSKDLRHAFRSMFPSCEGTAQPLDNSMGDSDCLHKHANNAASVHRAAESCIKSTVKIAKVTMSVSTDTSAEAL

Consider `CNC(=O)[C@@H](NC(=O)c1nc(Cc2ccccc2)n2c1CNCC2)C(C)(C)C` [Compound 13, (S)-3-benzyl-N-(3,3-dimethyl-1-(methylamino)-1-oxobutan-2-yl)-5,6,7,8-tetrahydroimidazo[1,5-a]pyrazine-1-carboxamide], for which the pEC50 (in assay [1]; at rat CB2 receptor (rCB2)) was less than 5.00 throughout.

The compound `CC(C)C[C@H](NC(=O)c1nc(-c2cccc(F)c2)n2c1CN(C)CCC2)C(N)=O` [Compound 566, (S)-N-(1-amino-4-methyl-1-oxopentan-2-yl)-3-(3-fluorophenyl)-8-methyl-6,7,8,9-tetrahydro-5H-imidazo[1,5-a][1,4]diazepine-1-carboxamide] had a negative logarithm of the EC50 (pEC50) in assay [1] of less than 5.00. Moreover, on rat CB2 receptor (rCB2), the “+/− RCB2” value is “+”.

Turning to `CN1CCCn2c(-c3cc(Cl)c(F)cc3F)nc(C(=O)N[C@@H](CC(C)(C)C)C(N)=O)c2C1` [Compound 591, (S)-N-(1-amino-4,4-dimethyl-1-oxopentan-2-yl)-3-(5-chloro-2,4-difluorophenyl)-8-methyl-6,7,8,9-tetrahydro-5H-imidazo[1,5-a][1,4]diazepine-1-carboxamide], in assay [1], the “+/− HCB1” value was “+”. For the same compound, the “+/− RCB2” value on rat CB2 receptor (rCB2) was “+”.

The compound `CNC(=O)[C@@H](NC(=O)c1nc(-c2ccsc2)n2c1CN(C)CCC2)C(C)(C)C` [Compound 329, (S)-N-(3,3-dimethyl-1-(methylamino)-1-oxobutan-2-yl)-8-methyl-3-(thiophen-3-yl)-6,7,8,9-tetrahydro-5H-imidazo[1,5-a][1,4]diazepine-1-carboxamide] had a pEC50 in assay [1] of less than 5.00. The “+/− RCB2” value on rat CB2 receptor (rCB2) was “+”.

Regarding `CNC(=O)[C@@H](NC(=O)c1nc(C(C)=C(C)C)n2c1CN(C)CCC2)C(C)(C)C` [Compound 454, (S)-N-(3,3-dimethyl-1-(methylamino)-1-oxobutan-2-yl)-8-methyl-3-(3-methylbut-2-en-2-yl)-6,7,8,9-tetrahydro-5H-imidazo[1,5-a][1,4]diazepine-1-carboxamide], the “+/− HCB1” value in assay [1] is listed as “+”. Also, at rat CB2 receptor (rCB2), the “+/− RCB2” value is “−”.

For `CCN1CCn2c(-c3ccccc3)nc(C(=O)N[C@H](C)C3CCCCC3)c2C1` [Compound 164, (R)-N-(1-cyclohexylethyl)-7-ethyl-3-phenyl-5,6,7,8-tetrahydroimidazo[1,5-a]pyrazine-1-carboxamide], the negative-log EC50 (pEC50) in assay [1] was less than 5.00. Further, the “+/− RCB2” value at rat CB2 receptor (rCB2) is listed as “−”.

In turn, `CNC(=O)[C@@H](NC(=O)c1nc(-c2ccc(F)c(C#N)c2)n2c1CN(C)CCC2)C(C)(C)C` [Compound 425, (S)-3-(3-cyano-4-fluorophenyl)-N-(3,3-dimethyl-1-(methylamino)-1-oxobutan-2-yl)-8-methyl-6,7,8,9-tetrahydro-5H-imidazo[1,5-a][1,4]diazepine-1-carboxamide] showed a negative-log EC50 (pEC50) in assay [1] of less than 5.00. Further, the “+/− RCB2” value on rat CB2 receptor (rCB2) is given as “+”.

As to `CNC(=O)[C@H](CC(C)C)NC(=O)c1nc(-c2ccc(C(F)(F)F)cc2F)n2c1CN(C)CCC2` [Compound 533, (S)-3-(2-fluoro-4-(trifluoromethyl)phenyl)-8-methyl-N-(4-methyl-1-(methylamino)-1-oxopentan-2-yl)-6,7,8,9-tetrahydro-5H-imidazo[1,5-a][1,4]diazepine-1-carboxamide], the negative-log EC50 (pEC50) in assay [1] is less than 5.00. Further, on rat CB2 receptor (rCB2), the “+/− RCB2” value is recorded as “+”.

Take `CCS(=O)(=O)N1CCn2c(-c3ccccc3)nc(C(=O)N[C@@H](C)c3ccccc3)c2C1` [Compound 113, (S)-7-(ethylsulfonyl)-3-phenyl-N-(1-phenylethyl)-5,6,7,8-tetrahydroimidazo[1,5-a]pyrazine-1-carboxamide]: the negative logarithm of the EC50 (pEC50) in assay [1] was less than 5.00. In addition, the “+/− RCB2” value at rat CB2 receptor (rCB2) is given as “−”.

`Cc1noc([C@@H](NC(=O)c2nc(-c3ccccc3)n3c2CN(C)CC3)C(C)(C)C)n1` [Compound 87, (S)-N-(2,2-dimethyl-1-(3-methyl-1,2,4-oxadiazol-5-yl)propyl)-7-methyl-3-phenyl-5,6,7,8-tetrahydroimidazo[1,5-a]pyrazine-1-carboxamide] showed a pEC50 in assay [1] of less than 5.00. Besides, the “+/− RCB2” value at rat CB2 receptor (rCB2) was “−”.

Take `CNC(=O)[C@H](CC(C)C)NC(=O)c1nc(-c2ccccc2)n2c1CN(C)CC2` [Compound 275, (S)-7-methyl-N-(4-methyl-1-(methylamino)-1-oxopentan-2-yl)-3-phenyl-5,6,7,8-tetrahydroimidazo[1,5-a]pyrazine-1-carboxamide]: the pEC50 in assay [1] is less than 5.00. Besides, the “+/− RCB2” value on rat CB2 receptor (rCB2) was “+”.

On to `CNC(=O)[C@@H](NC(=O)c1nc(-c2cccc(Cl)c2F)n2c1CN(C)CCC2)C(C)(C)C` [Compound 356, (S)-3-(3-chloro-2-fluorophenyl)-N-(3,3-dimethyl-1-(methylamino)-1-oxobutan-2-yl)-8-methyl-6,7,8,9-tetrahydro-5H-imidazo[1,5-a][1,4]diazepine-1-carboxamide], for which the pEC50 (in assay [1]; on rat CB2 receptor (rCB2)) was less than 5.00 throughout.

For the compound `CNC(=O)[C@@H](NC(=O)c1nc(/C=C/c2ccsc2)n2c1CN(C)CCC2)C(C)(C)C` [Compound 446], the pEC50 in assay [1] was less than 5.00. For the same compound, at rat CB2 receptor (rCB2), the “+/− RCB2” value is reported as “+”.

`CN(C)C(=O)[C@@H](NC(=O)c1nc(-c2ccccc2)n2c1CNCC2)C(C)(C)C` [Compound 196, (S)-N-(1-(dimethylamino)-3,3-dimethyl-1-oxobutan-2-yl)-3-phenyl-5,6,7,8-tetrahydroimidazo[1,5-a]pyrazine-1-carboxamide] had a negative logarithm of the EC50 (pEC50) in assay [1] of less than 5.00. Also, the “+/− RCB2” value on rat CB2 receptor (rCB2) is reported as “−”.

With `CC(=O)N1CCn2c(-c3ccccc3)nc(C(=O)NN3CCCCC3)c2C1` [Compound 175, 7-acetyl-3-phenyl-N-(piperidin-1-yl)-5,6,7,8-tetrahydroimidazo[1,5-a]pyrazine-1-carboxamide], the pEC50 (in assay [1]; at rat CB2 receptor (rCB2)) was less than 5.00 throughout.

Compound `CC(C)(C)CNC(=O)c1nc(-c2ccccc2)n2c1CN(S(=O)(=O)c1ccc(F)cc1)CC2` [Compound 103, 7-(4-fluorophenylsulfonyl)-N-neopentyl-3-phenyl-5,6,7,8-tetrahydroimidazo[1,5-a]pyrazine-1-carboxamide] showed a pEC50 in assay [1] of less than 5.00. In addition, the “+/− RCB2” value on rat CB2 receptor (rCB2) was “−”.

Consider `CN1CCn2c(-c3ccc(Cl)cc3F)nc(C(=O)NC3CCN(C(=O)OC(C)(C)C)CC3)c2C1` [Compound 209, tert-butyl 4-(3-(4-chloro-2-fluorophenyl)-7-methyl-5,6,7,8-tetrahydroimidazo[1,5-a]pyrazine-1-carboxamido)piperidine-1-carboxylate], for which the pEC50 (in assay [1]; on rat CB2 receptor (rCB2)) was less than 5.00 each time.

As to `C[C@@H](NC(=O)c1nc(-c2ccccc2)n2c1CNCC2)C1CCCCC1` [Compound 45, (R)-N-(1-cyclohexylethyl)-3-phenyl-5,6,7,8-tetrahydroimidazo[1,5-a]pyrazine-1-carboxamide], the half-maximal effective concentration (EC50) in assay [1] (groups >100 nM-10 μM and >10 μM, cAMP, CHO-K1 hCB1, read-out: EC50 HCB1) is greater than 10000 nM. On rat CB2 receptor (rCB2), the “+/− RCB2” value is listed as “−”.

`CC12CCC(C1)C(C)(C)C2NC(=O)c1nc(-c2ccccc2)n2c1CN(C(=O)C1CC1)CC2` (centres unmarked) [Compound 119, 7-(cyclopropanecarbonyl)-3-phenyl-N-(1,3,3-trimethyl-bicyclo [2.2.1]heptan-2-yl)-5,6,7,8-tetrahydroimidazo[1,5-a]pyrazine-1-carboxamide] had a negative logarithm of the EC50 (pEC50) in assay [1] of less than 5.00. The “+/− RCB2” value at rat CB2 receptor (rCB2) is “−”.

As for `CNC(=O)[C@H](CC(C)C)NC(=O)c1nc(-c2cc(F)c(F)cc2F)n2c1CN(C)CCC2` [Compound 538], the “+/− HCB1” value in assay [1] is listed as “+”. Further, the “+/− RCB2” value at rat CB2 receptor (rCB2) is listed as “+”.

Take `CNC(=O)[C@@H](NC(=O)c1nc(C2CCNCC2)n2c1CN(C)CCC2)C(C)(C)C` [Compound 503]: the “+/− HCB1” value in assay [1] is “+”. Besides, the “+/− RCB2” value on rat CB2 receptor (rCB2) is “+”.

As to `CNC(=O)[C@@H](NC(=O)c1nc(-c2ccc(C)c(F)c2)n2c1CN(C)CCC2)C(C)(C)C` [Compound 360, (S)-N-(3,3-dimethyl-1-(methylamino)-1-oxobutan-2-yl)-3-(3-fluoro-4-methylphenyl)-8-methyl-6,7,8,9-tetrahydro-5H-imidazo[1,5-a][1,4]diazepine-1-carboxamide], the negative-log EC50 (pEC50) (in assay [1]; on rat CB2 receptor (rCB2)) was less than 5.00 in each case.

In the case of `CNC(=O)[C@@H](NC(=O)c1nc(C2=CCC(C(C)(C)C)CC2)n2c1CN(C)CC2)C(C)(C)C` (stereo partly drawn) [Compound 271, 3-(4-tert-butylcyclohex-1-enyl)-N-((S)-3,3-dimethyl-1-(methylamino)-1-oxobutan-2-yl)-7-methyl-5,6,7,8-tetrahydroimidazo[1,5-a]pyrazine-1-carboxamide], the “+/− HCB1” value in assay [1] is recorded as “+”. Also, the “+/− RCB2” value on rat CB2 receptor (rCB2) is reported as “+”.

For `CN1CCn2c(-c3ccccc3)nc(C(=O)N[C@H](CO)C(C)(C)C)c2C1` [Compound 59, (S)-N-(1-hydroxy-3,3-dimethylbutan-2-yl)-7-methyl-3-phenyl-5,6,7,8-tetrahydroimidazo[1,5-a]pyrazine-1-carboxamide], the pEC50 (in assay [1]; on rat CB2 receptor (rCB2)) was less than 5.00 in each case.

With `CNC(=O)[C@@H](NC(=O)c1nc(-c2cccc(OC(F)(F)F)c2)n2c1CN(C)CCC2)C(C)(C)C` [Compound 338, (S)-N-(3,3-dimethyl-1-(methylamino)-1-oxobutan-2-yl)-8-methyl-3-(3-(trifluoromethoxy)phenyl)-6,7,8,9-tetrahydro-5H-imidazo[1,5-a][1,4]diazepine-1-carboxamide], the pEC50 (in assay [1]; on rat CB2 receptor (rCB2)) was less than 5.00 throughout.

What is called pEC50 is the negative decadic logarithm of the EC50, by convention in mol/L. As a reminder, the EC50 is the concentration at which the effect is half-maximal.
